Several values for one entry are separate records, joined by “and”; a condition that tells them apart may be missing. Equal values may be shown once.
Target: Human immunodeficiency virus type 1 reverse transcriptase (Human immunodeficiency virus 1, UniProt Q72547)
Assay: Inhibitory concentration against HIV-1 reverse transcriptase

EC50	Compound
1300 nM	Cc1c(Sc2cc(Cl)cc(Cl)c2)n(COCCO)c(=O)[nH]c1=O
7300 nM	CC(=O)c1cccc(Sc2c(C)c(=O)[nH]c(=O)n2COCCO)c1
4700 nM	C=Cc1c(Sc2ccccc2)n(COCCO)c(=O)[nH]c1=O
4300 nM	O=c1[nH]c(=O)n(COCCO)c(Sc2ccccc2)c1I
340 nM	CCc1c(Sc2ccccc2)n(CC(C)C)c(=O)[nH]c1=O
91 nM	CCc1c(Sc2ccccc2)n(COCCc2ccccc2)c(=S)[nH]c1=O
290 nM	CCc1c(Sc2ccccc2)n(CCCc2ccccc2)c(=O)[nH]c1=O
5.4 nM	CCOCn1c(Sc2cc(C)cc(C)c2)c(CC)c(=O)[nH]c1=O
2600 nM	Cc1cccc(Sc2c(C)c(=O)[nH]c(=O)n2COCCO)c1
10000 nM	Cc1c(Sc2cccc(I)c2)n(COCCO)c(=O)[nH]c1=O
220000 nM	Cc1ccc(Sc2c(C)c(=O)[nH]c(=O)n2COCCO)cc1
7900 nM	COC(=O)c1cccc(Sc2c(C)c(=O)[nH]c(=O)n2COCCO)c1
7.8 nM	CCc1c(Sc2cc(C)cc(C)c2)n(COCCO)c(=S)[nH]c1=O
34000 nM	Cc1c(Sc2cccc([N+](=O)[O-])c2)n(COCCO)c(=O)[nH]c1=O
43 nM	CCc1c(Sc2cc(Cl)cc(Cl)c2)n(COCCO)c(=S)[nH]c1=O
22000 nM	COc1cccc(Sc2c(C)c(=O)[nH]c(=O)n2COCCO)c1
5 nM	Cc1cc(C)cc(Sc2c(C(C)C)c(=O)[nH]c(=S)n2COCCO)c1
140000 nM	Cc1c(Sc2ccccc2[N+](=O)[O-])n(COCCO)c(=O)[nH]c1=O
63 nM	CC(C)c1c(Sc2ccccc2)n(COCCO)c(=O)[nH]c1=O
12000 nM	Cc1c(Sc2cccc(C(C)(C)C)c2)n(COCCO)c(=O)[nH]c1=O
59 nM	CC(C)c1c(Sc2ccccc2)n(COCCO)c(=S)[nH]c1=O
3300 nM	Cc1c(Sc2cccc(F)c2)n(COCCO)c(=O)[nH]c1=O
19000 nM	COc1ccccc1Sc1c(C)c(=O)[nH]c(=O)n1COCCO

EC50	Compound
110 nM and 120 nM	CCc1c(Sc2ccccc2)n(COCCO)c(=O)[nH]c1=O
220 nM	Cc1cc(C)cc(Sc2c(C)c(=O)[nH]c(=S)n2COCCO)c1
10000 nM	Cc1c(Sc2cccc(C#N)c2)n(COCCO)c(=O)[nH]c1=O
82000 nM	Cc1c(Sc2cccc(O)c2)n(COCCO)c(=O)[nH]c1=O
5700 nM	Cc1c(Sc2cccc(Br)c2)n(COCCO)c(=O)[nH]c1=O
71000 nM	Cc1ccccc1Sc1c(C)c(=O)[nH]c(=O)n1COCCO
8900 nM	Cc1c(Oc2ccccc2)n(COCCO)c(=O)[nH]c1=O
2500 nM	Cc1c(Sc2ccccc2)n(C/C=C/c2ccccc2)c(=O)[nH]c1=O
190 nM	CCc1c(Sc2ccccc2)n(C/C=C/c2ccccc2)c(=O)[nH]c1=O
40 nM	CCc1c(Sc2cc(C)cc(C)c2)n(C/C=C/c2cccs2)c(=O)[nH]c1=O
0.6 nM	CCOCn1c(Cc2cc(C)cc(C)c2)c(C(C)C)c(=O)[nH]c1=O
3500 nM	Cc1c(Sc2ccc(C3CCCCC3)cc2)n(COCCO)c(=O)[nH]c1=O
4000 nM	CCc1c(Sc2ccccc2)n(COC2CCCCC2)c(=O)[nH]c1=O
5700 nM	Cc1c(Cc2ccccc2)n(COCCO)c(=O)[nH]c1=O
100 nM	CCOCn1c(Sc2ccccc2)c(C2CC2)c(=O)[nH]c1=O
2700 nM	CCc1cccc(Sc2c(C)c(=O)[nH]c(=O)n2COCCO)c1
80 nM	CCc1c(Sc2ccccc2)n(C/C=C/c2cccs2)c(=O)[nH]c1=O
13000 nM	Cc1c(Sc2cccc(Cl)c2)n(COCCO)c(=O)[nH]c1=O
14 nM	CCc1c(Sc2cc(Cl)cc(Cl)c2)n(COCCO)c(=O)[nH]c1=O
170 nM	CCc1c(Sc2ccccc2)n(C/C=C/c2ccco2)c(=O)[nH]c1=O
45000 nM	Cc1c(Sc2cccc(C(F)(F)F)c2)n(COCCO)c(=O)[nH]c1=O
40 nM	CCc1c(Sc2cc(C)cc(C)c2)n(C/C=C/c2ccco2)c(=O)[nH]c1=O
100 nM	Cc1c(Sc2ccccc2)n(C/C=C/c2cccnc2)c(=O)[nH]c1=O

Compound	EC50
CCc1c(Sc2ccccc2)n(COCC2CCCCC2)c(=O)[nH]c1=O	450 nM
CCc1c(Sc2ccccc2)n(COCCc2ccccc2)c(=O)[nH]c1=O	96 nM
CC(C)c1c(Sc2ccccc2)n(COCc2ccccc2)c(=S)[nH]c1=O	6.8 nM
CCOCn1c(Sc2ccccc2)c(C(C)C)c(=O)[nH]c1=S	14 nM
CCc1c(Sc2ccccc2)n(COCc2ccccc2)c(=S)[nH]c1=O	7.8 nM
CCc1c(Sc2ccccc2)n(COCc2ccc(C)cc2)c(=S)[nH]c1=O	78 nM
CCc1c(Sc2cc(C)cc(C)c2)n(COCc2ccccc2)c(=S)[nH]c1=O	6.9 nM
CCc1c(Sc2ccccc2)n(COCC2CCCCC2)c(=S)[nH]c1=O	350 nM
CCc1c(Sc2ccccc2)n(CC(C)C)c(=S)[nH]c1=O	220 nM
CCc1c(Sc2ccccc2)n(COCc2ccccc2)c(=O)[nH]c1=O	5.9 nM
CCCCn1c(Sc2ccccc2)c(C)c(=O)[nH]c1=O	1200 nM
CCc1c(Sc2cc(C)cc(C)c2)n(COCc2ccccc2)c(=O)[nH]c1=O	3.2 nM
CCOCn1c(Cc2cc(C)cc(C)c2)c(CC)c(=O)[nH]c1=O	1.6 nM
COCCn1c(Cc2ccccc2)c(C(C)C)c(=O)[nH]c1=O	52 nM
CCOCn1c(Sc2ccccc2)c(C2CC2)c(=O)[nH]c1=S	95 nM
CCc1c(Sc2ccccc2)n(COCc2ccc(Cl)cc2)c(=S)[nH]c1=O	12 nM
CCc1c(Sc2ccccc2)n(COC2CCCCC2)c(=S)[nH]c1=O	1600 nM
CCOCn1c(Sc2cc(Cl)cc(Cl)c2)c(CC)c(=O)[nH]c1=O	7.4 nM
CCOCn1c(Sc2cc(C)cc(C)c2)c(CC)c(=O)[nH]c1=S	4.4 nM

Compound	EC50
CCOCn1c(Sc2cc(Cl)cc(Cl)c2)c(CC)c(=O)[nH]c1=S	13 nM
CCOCn1c(Sc2ccccc2)c(CC)c(=O)[nH]c1=O	19 nM
Cc1c(Sc2ccccc2)n(COCc2ccccc2)c(=O)[nH]c1=O	88 nM
CCOCn1c(Sc2ccccc2)c(C)c(=O)[nH]c1=O	330 nM
COCCOCn1c(Sc2ccccc2)c(C)c(=O)[nH]c1=O	8700 nM
CCOCn1c(Sc2ccccc2)c(C(C)C)c(=O)[nH]c1=O	12 nM
CCn1c(Sc2ccccc2)c(C)c(=O)[nH]c1=O	2200 nM
CC(C)c1c(Sc2ccccc2)n(COCc2ccccc2)c(=O)[nH]c1=O	2.7 nM
COCn1c(Sc2ccccc2)c(C)c(=O)[nH]c1=O	2100 nM
CCCOCn1c(Sc2ccccc2)c(C)c(=O)[nH]c1=O	3600 nM
CCOCn1c(Sc2ccccc2)c(CC)c(=O)[nH]c1=S	26 nM
CCc1c(Cc2ccccc2)n(CCOC)c(=O)[nH]c1=O	250 nM
CCOCn1c(Cc2ccccc2)c(CC)c(=O)[nH]c1=O	41 nM
CC(C)c1c(Cc2ccccc2)n(COCCO)c(=O)[nH]c1=O	63 nM
Cc1cc(C)cc(Cc2c(C(C)C)c(=O)[nH]c(=O)n2COCCO)c1	2.7 nM
CCc1c(Cc2cc(C)cc(C)c2)n(COCCO)c(=O)[nH]c1=O	13 nM
CCc1c(Cc2ccccc2)n(COCCO)c(=O)[nH]c1=O	350 nM
CCOCn1c(Cc2ccccc2)c(C(C)C)c(=O)[nH]c1=O [EMIVIRINE]	4.2 nM

— ChEMBL document CHEMBL1130269, “A 3D QSAR study of a series of HEPT analogues: the influence of conformational mobility on HIV-1 reverse transcriptase inhibition” (J Med Chem, 1997)
